Columns and labels:
[1] = from C=CCCCSC[C@@H](NC(=O)OC(C)(C)C)C(=O)N1C[C@H](Oc2nccc3cc(OC)ccc23)C[C@H]1C(=O)N[C@]1(C(=O)OCC)C[C@H]1C=C; rcm bond; Grubbs II (tricyclohexylphosphine[1,3-bis(2,4,6-trimethylphenyl)-4,5-dihydroimidazol-2-ylidene][benzylidene]ruthenium(IV) dichloride); 1,2-dichloroethane; 3.48 mM; 83.0 °C; 16.0 h
HCV = details: cited from earlier work
[2] = target: T1, HCV NS3/4A protease complex, BMS strain (genotype 1a) (UniProt P27958, C1454S/C1711G, species not given/STRAIN_BMS); test: Recombinant HCV NS3/4A protease complex FRET peptide assay, BMS strain; assay type: biochemical; details: NS3/4A BMS Strain; activity range classes
T1 construct: b1001: DNA encoding the recombinant HCV NS3/4A protease complex (amino acids 1027 to 1711) ... a three-lysine solubilizing tail was added at the 3′-end of the NS4A coding region; fused on or other part: Three-lysine solubilising tail at the C-terminus of NS4A; A His tag is implied by the pET21b vector and Ni-NTA purification
Text: Recombinant HCV NS3/4A Protease Complex FRET Peptide Assay
The purpose of this in vitro assay was to measure the inhibition of HCV NS3 protease complexes, derived from the BMS strain, H77C strain or J416S strain, as described below, by compounds of the present invention. This assay provides an indication of how effective compounds of the present invention would be in inhibiting HCV proteolytic activity.
Serum from an HCV-infected patient was obtained from Dr. T. Wright, San Francisco Hospital. An engineered full-length cDNA (compliment deoxyribonucleic acid) template of the HCV genome (BMS strain) was constructed from DNA fragments obtained by reverse transcription-PCR (RT-PCR) of serum RNA (ribonucleic acid) and using primers selected on the basis of homology between other genotype 1a strains. From the determination of the entire genome sequence, a genotype 1a was assigned to the HCV isolate according to the classification of Simmonds et al. (See P Simmonds, K A Rose, S Graham, S W Chan, F McOmish, B C Dow, E A Follett, P L Yap and H Marsden, J. Clin. Microbiol., 31(6), 1493–1503 (1993)). […] The infectious clones, H77C (1a genotype) and J4L6S (1b genotype) were obtained from R. Purcell (NIH) and the sequences are published in Genbank (AAB67036, see Yanagi, M., Purcell, R. H., Emerson, S. U. and Bukh, J. Proc. Natl. Acad. Sci. U.S.A. 94(16), 8738–8743 (1997); AF054247, see Yanagi, M., St Claire, M., Shapiro, M., Emerson, S. U., Purcell, R. H. and Bukh, J, Virology 244 (1), 161–172. (1998)).
The H77C and J4L6S strains were used for production of recombinant NS3/4A protease complexes. DNA encoding the recombinant HCV NS3/4A protease complex (amino acids 1027 to 1711) for these strains were manipulated as described by P. Gallinari et al. (see Gallinari P, Paolini C, Brennan D, Nardi C, Steinkuhler C, De Francesco R. Biochemistry. 38(17):5620–32, (1999)). Briefly, a three-lysine solubilizing tail was added at the 3′-end of the NS4A coding region. The cysteine in the P1 position of the NS4A-NS4B cleavage site (amino acid 1711) was changed to a glycine to avoid the proteolytic cleavage of the lysine tag. Furthermore, a cysteine to serine mutation was introduced by PCR at amino acid position 1454 to prevent the autolytic cleavage in the NS3 helicase domain. The variant DNA fragment was cloned in the pET21b bacterial expression vector (Novagen) and the NS3/4A complex was expressed in Escherichia coli strain BL21 (DE3) (Invitrogen) following the protocol described by P. Gallinari et al. (see Gallinari P, Brennan D, Nardi C, Brunetti M, Tomei L, Steinkuhler C, De Francesco R., J. Virol. 72(8):6758–69 (1998)) with modifications. Briefly, NS3/4A expression was induced with 0.5 mM Isopropyl β-D-1-thiogalactopyranoside (IPTG) for 22 hr at 20° C. A typical fermentation (10 L) yielded approximately 80 g of wet cell paste. The cells were resuspended in lysis buffer (10 mL/g) consisting of 25 mM N-(2-Hydroxyethyl)piperazine-N′-(2-Ethane Sulfonic acid) (HEPES), pH7.5, 20% glycerol, 500 mM Sodium Chloride (NaCl), 0.5% Triton-X100, 1 microgram/milliliter (“μg/mL”) lysozyme, 5 mM Magnesium Chloride (MgCl2), 1 ug/ml DnaseI, 5 mM β-Mercaptoethanol (βME), Protease inhibitor—Ethylenediamine Tetraacetic acid (EDTA) free (Roche), homogenized and incubated for 20 mins at 4° C. The homogenate was sonicated and clarified by ultra-centrifugation at 235000 g for 1 hr at 4° C. Imidazole was added to the supernatant to a final concentration of 15 mM and the pH adjusted to 8.0. The crude protein extract was loaded on a Nickel-Nitrilotriacetic acid (Ni-NTA) column pre-equilibrated with buffer B (25 mM HEPES, pH8.0, 20% glycerol, 500 mM NaCl, 0.5% Triton-X100, 15 mM imidazole, 5 mM βME). The sample was loaded at a flow rate of 1 mL/min. The column was washed with 15 column volumes of buffer C (same as buffer B except with 0.2% Triton-X100). The protein was eluted with 5 column volumes of buffer D (same as buffer C except with 200 mM Imidazole). […]

HCV replicon [3] = test: Two-drug combination matrix studies in HCV replicon system, Universal Response Surface Approach (URSA); assay type: cell-based; details: Hepatitis C virus, matrix study with NS5A inhibitor, URSA estimate (Table 10)
Protocol: In addition to the combination index approach, above, the Universal Response Surface Approach (URSA) was also used to assess the antiviral effects of combinations of NS5A or NS5B inhibitors with the NS3 protease inhibitor. The experiments were conducted in a matrixed format with 8 concentrations of NS3 protease inhibitor crossed against 10 concentrations of NS5A or NS5B inhibitor on each of three plates. 200× stock solutions of each inhibitor concentration were prepared by 3-fold dilution in DMSO. Effects on replication were assessed in the HCV replicon system as described above. The data was analyzed using the URSA as described in Greco, Park and Rustum (Greco, Park, Sook, and Rustum (1990) Application of a New Approach for the Quantitation of Drug Synergism to the Combination of cis-Diamminedichloroplatinum and 1-β-D-Arabinofuranosylcytosine, Cancer Research, 50, 5318–5327). The interaction of the two drugs was assessed by using non-linear regression with a bisection algorithm. Seven parameters were estimated. These include the minimal response or response in the absence of drug, the maximal response or response in the presence of infinite drug, EC50's for the two drugs, slope parameters for the two drugs, and the drug interaction parameter α which provides the assessment of synergism, antagonism or additivity. Additivity is implied when α is equal to zero, synergy if the interaction parameter is larger than zero, and antagonism when the interaction parameter is less than zero. The confidence interval for the interaction parameter is also presented. This interval is used to test for departure from additivity by comparing the bounds to zero—a lower bound of the interval greater than zero indicates synergy, an upper bound of less than zero indicates antagonism, and a value of zero contained in the interval indicates additivity.

HCV replicon [4] = test: Three-drug combination studies in HCV replicon system, combination index; assay type: cell-based; details: mono-therapy in the three-drug combination experiment, HCV replicon, read-out: NS5A inhibitor EC50
Protocol: […] an NS5B replicase inhibitor (compound 2006; WO 03/010141), were tested in 2-drug combinations with the macrocyclic HCV NS3 protease inhibitor compound 28. In addition, compound 28 was also tested in 3-drug combinations with the NS5A and NS5B inhibitors.
For the experiments shown in Tables 8 and 9, inhibitors were tested at eleven concentrations each. 200× stock solutions of each inhibitor concentration were prepared by 2- or 3-fold dilution in DMSO prior to addition to cells/media. The drugs were tested as monotherapies and in combination with the NS3 protease inhibitor at various concentration ratios. Cells were exposed to compounds for 4 days and the amount of HCV inhibition was then determined using the FRET assay. The potential cytotoxicities of these combined agents were also analyzed in parallel by Alamar Blue staining. […] The degree of antagonism, additivity, or synergy was determined over a range of drug concentrations, and combination response curves were fit to assess the antiviral effects of the drug treatment combinations. The concentration ratios were analyzed using the method of Chou (Chou, Ting-Chao, and Rideout (Editors), (1991) Synergism and Antagonism in Chemotherapy, P. 61–101, Academic Press, New York). Tables 8 and 9 report the estimated EC50 values for the compounds tested, as well as the combination indices (CI). All estimates were computed using SAS Proc NLIN, and a two-parameter logistic. All combination indices were tested for departure from additivity using isobologram methods. Asymptotic confidence intervals were also calculated for each of the combination indices. These intervals are used to test for departure from additivity by comparing the bounds to one—a lower bound of the interval greater than 1 indicates antagonism, an upper bound of less than 1 indicates synergism, and a value of 1 contained in the interval indicates additivity.
Compound 28 was also tested in 3-drug combination experiments with the NS5A inhibitor and the NS5B inhibitor (Table 12). The starting concentrations for the mono-therapies consisted of a 0.667 μM solution of the NS5A inhibitor, a 0.3 μM solution of compound 28, and a 2.5 μM solution of the NS5B inhibitor. The starting concentration for the triple combination contained a mixture of ⅓ of each of the above concentrations. Dose response curves for all three mono-therapies and the triple combination therapy were obtained using 3-fold dilutions, and data analysis was carried out as described above for combination index experiments.

## CCOC(=O)[C@@]12C[C@H]1C=CCCCSC[C@@H](NC(=O)OC(C)(C)C)C(=O)N1C[C@H](Oc3nccc4cc(OC)ccc34)C[C@H]1C(=O)N2
[1]
  ring closure, yield of all isomers: 73%

## alpha-interferon and ribavirin [reference compound]
HCV; HCV patients
  sustained efficacy: 40 % of patients

## pegylated alpha-interferon
HCV; clinical results, monotherapy
  efficacy as monotherapy compared with unmodified alpha-interferon: superior to unmodified alpha-interferon

## COc1ccc2c(O[C@@H]3C[C@H]4C(=O)N[C@]5(C(=O)O)C[C@H]5/C=C\COCC[C@H](NC(=O)OC(C)(C)C)C(=O)N4C3)nccc2c1 [Compound 140]
[2]
  IC50: 5000 to 50000 nM

## O=C(Nc1ccc(C2S/C(=N\c3ccc(N4CCOCC4)cc3)N(Cc3cccnc3)C2=O)cc1)[C@@H]1CCCN1C(=O)CCc1ccccc1 (stereo partly shown) [NS5A inhibitor, reference compound]
HCV replicon [3]
  EC50: 8 nM
HCV replicon [4]; Hepatitis C virus
  EC50: 5 nM
HCV replicon [4]
  EC50: 9 nM

— patent US7173004B2, “Macrocyclic isoquinoline peptide inhibitors of hepatitis C virus” (Bristol-Myers Squibb Company, priority 2003, dated 2007)
